Laboratory results taken from EP0409414B1, “Diaryl ether cycloalkanes” (IMPERIAL CHEMICAL INDUSTRIES PLC, priority 1989, dated 1991).
pIC50: −log10 of the molar value.

Target: T1, 5-LO (Homo sapiens, UniProt P09917)
T1 construct: incubating a test compound with heparinised human blood, prior to challenge with the calcium ionophore A23187; endogenous in cells; host or cells: heparinised human whole blood (leukocytes)
T1 sequence (P09917 1-674): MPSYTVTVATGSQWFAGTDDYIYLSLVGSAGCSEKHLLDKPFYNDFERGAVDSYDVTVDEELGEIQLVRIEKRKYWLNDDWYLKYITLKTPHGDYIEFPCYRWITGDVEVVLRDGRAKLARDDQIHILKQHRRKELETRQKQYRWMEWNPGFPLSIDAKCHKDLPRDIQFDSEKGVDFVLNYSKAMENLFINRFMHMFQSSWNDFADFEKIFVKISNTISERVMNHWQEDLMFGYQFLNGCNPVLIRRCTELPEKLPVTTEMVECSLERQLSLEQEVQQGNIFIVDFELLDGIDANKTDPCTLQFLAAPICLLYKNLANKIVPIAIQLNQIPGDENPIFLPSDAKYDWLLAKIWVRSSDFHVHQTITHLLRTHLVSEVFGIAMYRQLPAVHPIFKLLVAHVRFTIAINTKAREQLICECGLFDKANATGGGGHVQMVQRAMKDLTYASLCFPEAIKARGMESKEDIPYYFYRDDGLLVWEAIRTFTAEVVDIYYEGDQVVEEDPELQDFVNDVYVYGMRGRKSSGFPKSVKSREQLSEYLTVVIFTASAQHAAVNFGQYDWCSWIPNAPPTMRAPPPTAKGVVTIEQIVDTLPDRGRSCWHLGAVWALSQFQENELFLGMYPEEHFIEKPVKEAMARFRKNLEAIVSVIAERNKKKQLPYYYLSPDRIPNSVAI
Test: heparinised human blood challenged with calcium ionophore A23187, radioimmunoassay of LTB4 (test b)
Assay type: cell-based
Conditions: individual compounds, read-out: IC50 against LTB4
Method: As stated previously, the compounds of the formula I are inhibitors of the enzyme 5-LO. […] This test provides a measure of the intrinsic inhibitory properties against soluble 5-LO in an extracellular environment. • b) An in vitro assay system involving incubating a test compound with heparinised human blood, prior to challenge with the calcium ionophore A23187 and then indirectly measuring the inhibitory effects on 5-LO by assaying the amount of LTB4 using the specific radioimmunoassay described by Carey and Forder (F. Carey and R.A. Forder, Brit. […] The effects of a test compound on the enzyme cyclooxygenase (which is involved in the alternative metabolic pathway for arachidonic acid and gives rise to prostaglandins, thromboxanes and related metabolites) may be measured at the same time using the specific radioimmunoassay for thromboxane B2(TxB2) described by Carey and Forder (see above). […] It permits the selectivity of the inhibitory effect on 5-LO or cyclooxygenase to be assessed. • c) An ex vivo assay system, which is a variation of test b) above, involving administration of a test compound (usually orally as the suspension produced when a solution of the test compound in dimethylsulphoxide is added to carboxymethylcellulose), blood collection, heparinisation, challenge with A23187 and radioimmunoassay of LTB4 and TxB2. […]

Row | Compound | pIC50
1 | CO[C@H]1CCC[C@@]1(OC)c1cc(F)cc(Sc2ccc3ccccc3c2)c1 (racemic) [Example 1, (1RS,2SR)-1-[5-fluoro-3-(naphth-2-ylthio)phenyl]-1,2-dimethoxycyclopentane] | ~6.70
2 | C=CCO[C@@]1(c2cc(F)cc(Sc3ccc4ccccc4c3)c2)CCC[C@@H]1OC (racemic) [Example 2, (1RS,2SR)-1-allyloxy-1-[5-fluoro-3-(naphth-2-ylthio)phenyl]-2-methoxycyclopentane] | ~6.70
